The values that follow come from patent publication EP2020405A1, “Substituted aryl or heteroarylpiperidine derivatives as melanocortin-4 receptor modulators” (Santhera Pharmaceuticals (Schweiz) AG, priority 2007, dated 2009).

The target in assay [1] is T1, hMC-4R (Homo sapiens, UniProt P32245).
T1 construct: expressed in transfected cells; host or cells: HEK293
The assay is described as follows: Membrane binding assay (fluorescence polarization, competition with fluorescence labeled NDP-alpha-MSH). Particulars: HEK293 cell membrane preparations expressing human melanocortin receptors; 5 h at room temperature.

Assay [2] deals with T1, hMC-4R. Description: Functional assay (membrane based cAMP fluorescence polarization, agonistic activity). Details: concentration or dose not given beside the values. The assay is classed as biochemical. As to conditions: cAMP produced compared to stimulation with NDP-alpha-MSH. As to the method:
Agonistic activity of human melanocortin receptors is determined in a homogeneous membrane based assay.
Membrane preparations from HEK293 cells expressing the human melanocortin receptors are added. After a short preincubation period, an appropriate amount of ATP, GTP and the cAMP antibody is added and the plate is further incubated before the fluorescence labeled cAMP conjugate is dispensed. The plate is incubated for 2 h at 4°C before it is read on a fluorescence polarization microplate reader. The amount of cAMP produced as a response to a test compound is compared to the production of cAMP resulting from stimulation with NDP-alpha-MSH.

T1 sequence (P32245 whole entry): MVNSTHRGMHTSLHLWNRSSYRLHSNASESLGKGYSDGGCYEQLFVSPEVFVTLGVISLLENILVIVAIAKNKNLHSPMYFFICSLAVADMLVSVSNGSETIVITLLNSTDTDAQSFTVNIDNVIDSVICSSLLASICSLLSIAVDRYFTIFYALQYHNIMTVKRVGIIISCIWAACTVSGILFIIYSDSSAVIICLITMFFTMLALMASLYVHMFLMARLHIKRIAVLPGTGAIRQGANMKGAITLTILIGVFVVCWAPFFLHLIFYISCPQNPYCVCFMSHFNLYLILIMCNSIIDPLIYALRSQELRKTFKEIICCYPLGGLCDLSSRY

`CCC(COc1cc(Cl)ccc1C1CCN(C(=O)[C@@H](Cc2ccc(Cl)cc2Cl)N2CCCC2)CC1)N1CCCC1` (stereo partly drawn) [Example 3]: the IC50 in assay [1] was 2.1 nM. Besides, the “% activation functional assay” value in assay [2] came to 0%.
As for `CCC(CN1CCCC1)Oc1cc(Cl)ccc1C1CCN(C(=O)[C@@H](Cc2ccc(Cl)cc2Cl)N2CCCC2)CC1` (stereo partly drawn) [Example 4], the IC50 in assay [1] was 2.4 nM. Further, the “% activation functional assay” value in assay [2] was 0%.
Taken in the same sequence, the figures for `O=C(C(Cc1ccc(Cl)cc1Cl)N1CCCCC1)N1CCC(c2ccc(Cl)cc2OCCN2CCCC2)CC1` (stereo not drawn) [Example 10] were 62 nM and 14%.
The like results for `O=C(C(Cc1ccc(Cl)cc1Cl)N1CCCCC1)N1CCC(c2cc(F)ccc2CCN2CCCC2)CC1` (stereo not drawn) [Example 15] were, in that order, 180 nM and 0%.
Taken in the same sequence, the figures for `CCC(Cc1cc(Cl)ccc1C1CCN(C(=O)C(Cc2ccc(Cl)cc2Cl)n2cncn2)CC1)CN1CCCC1` (stereo not drawn) [Example 22] were 17 nM and 0%.
For the compound `O=C(C(Cc1ccc(Cl)cc1Cl)n1cncn1)N1CCC(c2ccc(Cl)cc2OCCN2CCCC2)CC1` (stereo not drawn) [Example 23], in assay [1], the IC50 was 7.7 nM. The “% activation functional assay” value in assay [2] is given as 0%.
Taken in the same sequence, the figures for `O=C(C(Cc1ccc(Cl)cc1Cl)N1CCOCC1)N1CCC(c2ccc(Cl)cc2OCCN2CCCC2)CC1` (stereo not drawn) [Example 25] were 100 nM and 0%.
Taken in the same sequence, the figures for `O=C(C(Cc1ccc(Cl)cc1Cl)Nc1cccnc1)N1CCC(c2ccc(Cl)cc2OCCN2CCCC2)CC1` (stereo not drawn) [Example 27] were 5.9 nM and 0%.
The like results for `Cc1ccn(C(Cc2ccc(Cl)cc2Cl)C(=O)N2CCC(c3ccc(Cl)cc3OCCN3CCCC3)CC2)n1` (stereo not drawn) [Example 34] were, in that order, 220 nM and 0%.
